From patent US9637529B2, “Medicament for atrophy treatment or increasing cell growth” (SIMU TRADE CONSULTING GMBH & CO. LEASING KG, priority 2012, dated 2017)
Entries after “also recorded” stand apart in the source; their conditions may differ.

What was measured:
[1] = test system: human T-cell line (Jurkat); experiment: H2O2-induced apoptosis, trypan-blue staining, Jurkat; assay type: cell-based; settings: 200 mM H2O2, SERF2 5 μg/ml, 6 hours, serum-free
Experimental: Experiments were performed in 6-well plates containing 5 ml cell culture medium (serum-free) per well and were seeded at a cell density of 1*10^6 cells/well and cultured overnight. On the next day 200 mM H2O2 (red bar) or 200 mM H2O2 and SERF2 (green bar; 5 μg/ml) was added to cultures. After 6 hours of incubation, the adherent cells were harvested, washed 3 times in PBS and dead cells were detected by trypan-blue staining using light microscopy. Shown is the percentage of dead cells.
Trypan Blue staining is one of the most commonly used methods to determine the cell viability using light microscopy. Trypan blue can only stain cells if their membrane is damaged.
The question was asked whether SERF2 has an effect on growth factor deprivation- or stress-induced apoptosis. The experimental protocol included addition of Hydrogen peroxide (H2O2), which is known to cause cellular stress and consequently apoptotic death in doses below 200 μM (Cox A., Carcinogenesis. 2007, Vol. 28, 10). Furthermore apoptosis was induced by deprivation of granulocyte macrophage colony-stimulating factor (GM-CSF) in cultures of TF-1 cells. These cells are dependent on the presence of a growth factor which is absolutely necessary for growth and differentiation of TF-1 cells.

TF-1 cells = experiment: Growth factor deprivation apoptosis, caspase-3 ELISA, TF-1; assay type: cell-based, human; settings: serum-free medium with or without GM-CSF, SERF2 5 μg/ml, 9.5 hours
Experimental: TF-1 cells were incubated under different culture conditions: FCS+GM-CSF (dark blue), serum-free medium+GM-CSF (5 μg/ml; pale blue), serum-free medium+GM-CSF+SERF2 (5 μg/ml; lime), serum-free medium+SERF2 (green) and serum-free medium only (red). After 9.5 hours culture supernatants were analyzed by an ELISA-technique for caspase-3 expression levels. Results are expressed as pNA in pmol/μl
(§1) Caspase-3 is a member of the cysteine aspartic acid-specific protease family and is a marker of an early event in apoptosis. Caspase-3 expression was measured using a commercially available kit. Briefly, culture supernatants of cells undergoing apoptosis after different treatments were harvested and incubated with a substrate labeled with p-nitroaniline (pNA), which produces a yellow color when it is cleaved by caspase-3. The amount of produced yellow color is proportional to the caspase-3 activity, which can be determined by an ELISA reader at 405 nm (Promega). The assay was performed essentially as described by the manufacturer (instruction manual of CaspACE™ Assay System, Promega).
(§2) The question was asked whether SERF2 has an effect on growth factor deprivation- or stress-induced apoptosis. The experimental protocol included addition of Hydrogen peroxide (H2O2), which is known to cause cellular stress and consequently apoptotic death in doses below 200 μM (Cox A., Carcinogenesis. 2007, Vol. 28, 10). […]

711-3 cells = experiment: H2O2-induced apoptosis, caspase-3 ELISA, 711-3; assay type: cell-based, human; settings: serum-free medium with or without H2O2, SERF2 5 μg/ml, 9.5 hours
Experimental: 711-3 cells were incubated under different culture conditions: serum-free medium (dark blue), serum-free medium+SERF2 (5 μg/ml; lime) serum-free medium+SERF2+H2O2 (green) and serum-free medium+H2O2 (red). After 9.5 hours culture supernatants were analyzed by an ELISA-technique for caspase-3 expression levels. Results are expressed as pNA in pmol/μl.
as §1, §2

zebrafish [2] = experiment: Zebrafish blood cell concentration; assay type: in vivo
Experimental: FIG. 14: Changes in blood cell concentrations in zebrafish incubated in different doses of SERF2. Shown are mean values (blood cells/nl) and SEM. Asterisks indicate significant differences to control animals.
FIG. 17: Detection of blood cells (green arrows) in 7 dpf zebrafish (top image=control, lower image=SERF2-treated). To determine blood cell concentration the number of detected cells were divided by vessel volume.
(§3) SERF2 was administered by a) injection of the native protein into the yolk sac of 3 day post fertilization (dpf) animals and freshly fertilized eggs (2-8 cell stage) in various protein concentrations or chronic incubation with the native protein to supply it via diffusion. For in deep analysis of angiogenic effects flk-1 transgenic animals with gfp (green fluorescent protein) labelled endothelium were used. For all other experiments wildtype (wdt) animals were used.
A cast of the vascular bed was obtained by accumulation of the shifting vectors of moving erythrocytes from a number of subsequent difference pictures, as described previously (by Schwerte et al., supra). In parallel to this flk-1 transgenic animals, which show green fluorescing endothelium, were imaged.

zebrafish [3] = experiment: Zebrafish TUNEL in situ staining of apoptotic cells; assay type: in vivo; settings: gill, skeletal muscle and tail sections, versus untreated animals
Experimental: FIG. 18: Apoptotic cells detected by TUNEL technology in gill, skeletal muscle and tail sections.
as §3
Apoptotic. cells were detected by TUNEL technology using in situ Cell Death Detection Kit, Fluorescein (Roche Applied Science, Mannheim, Germany) according to the manufacturer's instructions. Statistical Analysis. The acquired data statistically analyzed by using a two tailed students t-Test (Microsoft Excel) and significance was accepted when P<0.05. Data are presented as mean±S.E.M.

Substance: SERF2: Small EDRK-rich factor 2, mature protein of 59 amino acids (SEQ ID NO: 1) (MTRGNQRELARQKNMKKQSDSVKGKRRDDGLSAAARKQRDSEIMQQKQKKANEKKEEPK; homo sapiens)
- protection from H2O2-induced apoptosis (percentage of dead cells), Jurkat [1]: markedly reduced apoptosis; also recorded: protects a human T-cell line (Jurkat) from H2O2-induced apoptosis
- apoptosis (caspase-3 levels) in TF-1 cells (TF-1 cells): markedly reduced apoptosis; also recorded: compensates for FCS and alleviates apoptosis
- apoptosis (caspase-3 levels) in 711-3 cells (711-3 cells): markedly reduced apoptosis; also recorded: alleviates apoptosis
- blood cell concentrations by treatment group (zebrafish [2]; 7 dpf, incubation and injection routes): all but one treatment group show significantly increased blood cell concentrations
- increase in blood cell concentration compared to controls (zebrafish [2]; zebrafish, different doses of SERF2): 50 to 100%
- number of apoptotic cells (TUNEL) (zebrafish [3]): reduced number of apoptotic cells; also recorded: lower in different regions as compared to untreated animals
